ChEMBL document CHEMBL5370616, “Novel Nitric Oxide Donor-Azole Conjugation Strategy for Efficient Treatment of Cryptococcus neoformans Infections” (J Med Chem, 2023)
≈ marks a conversion by molar mass, not a printed value. Calls of active or inactive are those of the source. No cut-off for these calls is given here.

Columns and labels:
Cryptococcus neoformans [1] = assay: Antifungal activity against Cryptococcus neoformans H99 assessed as reduction in number of colonies at 0.125 to 1 ug/ml incubated for 72 hrs by agar disk diffusion assay; assay type: functional; set-up: scale not given: the % may be the effect or the level left; conditions: dose 0.125-1 µg/ml, at 0.125 to 1 µg/mL
Cryptococcus neoformans [2] = assay: Inhibition of CYP51 in Cryptococcus neoformans H99 assessed as increase in lanosterol level at 0.125 ug/ml incubated for 24 hrs by GC-MS analysis (Rvb= 6.24%); conditions: dose 0.125 µg/ml
Cryptococcus neoformans [3] = assay: Inhibition of CYP51 in Cryptococcus neoformans H99 assessed as increase in other unknown sterol level at 0.125 ug/ml incubated for 24 hrs by GC-MS analysis (Rvb= 12.49%); conditions: dose 0.125 µg/ml
Candida albicans [4] = assay: Antifungal activity against Candida albicans 0304103 assessed as reduction in fungal growth incubated for 48 hrs by CLSI protocol based microplate reader analysis; assay type: functional
Cryptococcus neoformans [5] = assay: Antifungal activity against Cryptococcus neoformans H99 assessed as reduction in fungal growth incubated for 72 hrs by CLSI protocol based microplate reader analysis; assay type: functional
Cryptococcus neoformans [6] = assay: Disruption of preformed mature biofilm in Cryptococcus neoformans H99 assessed as removal of mature biofilm at 32 ug/ml incubated for 24 hrs by XTT reduction assay; assay type: functional; set-up: scale not given: the % may be the effect or the level left; conditions: dose 32 µg/ml
Nakaseomyces glabratus = assay: Antifungal activity against Candida glabrata 10639 assessed as reduction in fungal growth incubated for 48 hrs by CLSI protocol based microplate reader analysis; assay type: functional
Cryptococcus neoformans [7] = assay: Antifungal activity against Cryptococcus neoformans H99 assessed as reduction in melanin production at 32 ug/ml by microplate analysis; assay type: functional, organism-based; conditions: dose 32.0 µg/ml
Cryptococcus neoformans [8] = assay: Fungicidal activity against Cryptococcus neoformans H99 assessed as cell death by measuring red fluorescence at 8 ug/ml incubated for 12 hrs by PI staining based confocal laser scanning microscopy; assay type: functional, organism-based; conditions: dose 8.0 µg/ml
Cryptococcus neoformans [9] = assay: Inhibition of biofilm formation in Cryptococcus neoformans H99 at 0.25 ug/ml incubated for 24 hrs by XTT reduction assay; assay type: functional
Cryptococcus neoformans [10] = assay: Antifungal activity against Cryptococcus neoformans H99 assessed as reduction in fungal growth at 0.25 to 8 ug/ml incubated upto 72 hrs by microplate reader analysis; assay type: functional, organism-based; conditions: dose 0.25-8 µg/ml
Candida albicans [11] = assay: Antifungal activity against Candida albicans SC5314 assessed as reduction in fungal growth incubated for 48 hrs by CLSI protocol based microplate reader analysis; assay type: functional
Cryptococcus neoformans [12] = assay: Disruption of preformed mature biofilm in Cryptococcus neoformans H99 assessed as removal of mature biofilm at 0.125 to 32 ug/ml incubated for 24 hrs in presence of 2-phenyl-4,4,5,5-tetramethylimidazoline-l-oxyl 3-oxide by XTT reduction assay; assay type: functional, organism-based; conditions: dose 0.125-32 µg/ml
Cryptococcus neoformans [13] = assay: Disruption of preformed mature biofilm in Cryptococcus neoformans H99 assessed as removal of mature biofilm at 0.125 ug/ml incubated for 24 hrs by XTT reduction assay; assay type: functional; set-up: scale not given: the % may be the effect or the level left; conditions: dose 0.125 µg/ml
Cryptococcus neoformans [14] = assay: Fungicidal activity against Cryptococcus neoformans H99 assessed as reduction in colony forming units at 8 ug/ml incubated upto 72 hrs by time-kill assay; assay type: functional; set-up: scale not given: the % may be the effect or the level left; conditions: dose 8 µg/ml
Cryptococcus neoformans [15] = assay: Antifungal activity against Cryptococcus neoformans H99 assessed as reduction in urease production at 8 ug/ml by microplate analysis; assay type: functional, organism-based; conditions: dose 8.0 µg/ml
Cryptococcus neoformans [16] = assay: Inhibition of CYP51 in Cryptococcus neoformans H99 assessed as decrease in unknown sterol level at 0.125 ug/ml incubated for 24 hrs by GC-MS analysis (Rvb= 22.95%); conditions: dose 0.125 µg/ml
Cryptococcus neoformans [17] = assay: Inhibition of CYP51 in Cryptococcus neoformans H99 assessed as reduction in ergosterol level at 0.125 ug/ml incubated for 24 hrs by GC-MS analysis (Rvb= 58.33%); conditions: dose 0.125 µg/ml
[18] = Drug metabolism in Cryptococcus neoformans H99 assessed as NO release by measuring green fluorescence at 8 ug/ml incubated for 12 hrs by DAF-FM DA staining based confocal laser scanning microscopy; assay type: ADME; conditions: dose 8 µg/ml
Cryptococcus neoformans [19] = assay: In vivo antifungal activity against Cryptococcus neoformans H99 infected in cryptococcal meningitis ICR mouse model assessed as reduction in blood vessel congestion at 10 mg/kg,INH QD for 5 days by H and E staining based microscopic analysis; assay type: functional, organism-based; conditions: time 5.0 day
Cryptococcus neoformans [20] = assay: In vivo antifungal activity against Cryptococcus neoformans H99 infected in cryptococcal meningitis ICR mouse model assessed as reduction in organism brain invasion at 10 mg/kg,INH QD for 5 days by PAS staining based microscopic analysis; assay type: functional; conditions: time 5.0 day
Cryptococcus neoformans [21] = assay: In vivo antifungal activity against Cryptococcus neoformans H99 infected in cryptococcal meningitis ICR mouse model assessed as reduction in fungal burden in brain at 10 mg/kg,INH QD for 5 days by CFU assay; assay type: functional, organism-based; conditions: time 5.0 day
Cryptococcus neoformans [22] = assay: In vivo antifungal activity against Cryptococcus neoformans H99 infected in cryptococcal meningitis ICR mouse model assessed as reduction in fungal burden in lung at 10 mg/kg,INH QD for 5 days by CFU assay; assay type: functional, organism-based; conditions: time 5.0 day
[23] = Metabolic stability in Sprague-Dawley rat plasma assessed as parent compound remaining at 500 uM and measured upto 120 mins by HPLC analysis; assay type: ADME, cell-free; conditions: 2 h
Cryptococcus neoformans [24] = assay: In vivo antifungal activity against Cryptococcus neoformans H99 infected in cryptococcal meningitis ICR mouse model assessed as reduction in neuronal necrosis at 10 mg/kg,INH QD for 5 days by H and E staining based microscopic analysis; assay type: functional, organism-based; conditions: time 5.0 day
[25] = Metabolic stability in Sprague-Dawley rat liver microsomes assessed as parent compound remaining at 200 uM and measured upto 120 mins by HPLC analysis; assay type: ADME, Microsome; conditions: 2 h
Cryptococcus neoformans [26] = assay: In vivo antifungal activity against Cryptococcus neoformans H99 infected in cryptococcal meningitis ICR mouse model assessed as reduction in irregular cavities in brain at 10 mg/kg,INH QD for 5 days by H and E staining based microscopic analysis; assay type: functional, organism-based; conditions: time 5.0 day
Cryptococcus neoformans [27] = assay: In vivo antifungal activity against Cryptococcus neoformans H99 infected in cryptococcal meningitis ICR mouse model assessed as reduction in neuronal necrosis at 1 mg/kg,INH QD for 5 days by H and E staining based microscopic analysis; assay type: functional, organism-based; conditions: time 5.0 day
Cryptococcus neoformans [28] = assay: In vivo antifungal activity against Cryptococcus neoformans H99 infected in cryptococcal meningitis ICR mouse model assessed as reduction in fungal burden in lung at 1 mg/kg,INH QD for 5 days by CFU assay; assay type: functional, organism-based; conditions: time 5.0 day
Cryptococcus neoformans [29] = assay: Antifungal activity against Cryptococcus neoformans H99 assessed as reduction in urease production at 4 ug/ml by microplate analysis; assay type: functional, organism-based; conditions: dose 4.0 µg/ml
Cryptococcus neoformans [30] = assay: In vivo antifungal activity against Cryptococcus neoformans H99 infected in cryptococcal meningitis ICR mouse model assessed as reduction in fungal burden in brain at 1 mg/kg,INH QD for 5 days by CFU assay; assay type: functional, organism-based; conditions: time 5.0 day
Cryptococcus neoformans [31] = assay: Antifungal activity against Cryptococcus neoformans H99 assessed as change in internal microstructure by observing cell membrane damage at 0.125 to 4 ug/ml incubated for 8 hrs by TEM analysis; assay type: functional, organism-based; conditions: dose 0.125-4 µg/ml
Cryptococcus neoformans [32] = assay: In vivo antifungal activity against Cryptococcus neoformans H99 infected in cryptococcal meningitis ICR mouse model assessed as reduction in blood vessel congestion at 1 mg/kg,INH QD for 5 days by H and E staining based microscopic analysis; assay type: functional, organism-based; conditions: time 5.0 day
Cryptococcus neoformans [33] = assay: In vivo antifungal activity against Cryptococcus neoformans H99 infected in cryptococcal meningitis ICR mouse model assessed as reduction in irregular cavities in brain at 1 mg/kg,INH QD for 5 days by H and E staining based microscopic analysis; assay type: functional, organism-based; conditions: time 5.0 day
Cryptococcus neoformans [34] = assay: Antifungal activity against Cryptococcus neoformans H99 assessed as change in internal microstructure by observing sparse capsule at 0.125 to 4 ug/ml incubated for 8 hrs by TEM analysis; assay type: functional, organism-based; conditions: dose 0.125-4 µg/ml
Cryptococcus neoformans [35] = assay: In vivo antifungal activity against Cryptococcus neoformans H99 infected in cryptococcal meningitis ICR mouse model assessed as reduction in organism brain invasion at 1 mg/kg,INH QD for 5 days by PAS staining based microscopic analysis; assay type: functional; conditions: time 5.0 day
Cryptococcus neoformans [36] = assay: Inhibition of biofilm formation in Cryptococcus neoformans H99 at 0.25 ug/ml incubated for 24 hrs in presence of 2-phenyl-4,4,5,5-tetramethylimidazoline-l-oxyl 3-oxide by XTT reduction assay; assay type: functional, organism-based; conditions: dose 0.25 µg/ml
Cryptococcus neoformans [37] = assay: Antifungal activity against Cryptococcus neoformans H99 assessed as reduction in melanin production at 16 ug/ml by microplate analysis; assay type: functional, organism-based; conditions: dose 16.0 µg/ml

Structure (SMILES)	Activity (Cryptococcus neoformans [1]) [%]	inhibition (Cryptococcus neoformans [2]) [%]	inhibition (Cryptococcus neoformans [3]) [%]	MIC80 (Candida albicans [4]) [µg/mL]	MIC80 (Cryptococcus neoformans [5]) [µg/mL]	Activity (Cryptococcus neoformans [6]) [%]	MIC80 (Nakaseomyces glabratus) [µg/mL]	Activity (Cryptococcus neoformans [8])	inhibition at 0.25 µg/mL (Cryptococcus neoformans [9]) [%]	Activity (Cryptococcus neoformans [10])	MIC80 (Candida albicans [11]) [µg/mL]	Activity (Cryptococcus neoformans [12])	Activity (Cryptococcus neoformans [13]) [%]	Activity (Cryptococcus neoformans [14]) [%]	inhibition (Cryptococcus neoformans [16]) [%]	inhibition (Cryptococcus neoformans [17]) [%]	Drug metabolism [18]	Stability [23]	Stability [25]	further results
CN(Cc1ccc(OCCCOc2ccc(CC(=O)OCc3ccc(CO[N+](=O)[O-])cc3)cc2)cc1)CC(O)(Cn1cncn1)c1ccc(F)cc1F (stereo unspecified)	100	50.9	33.6	32 (≈ 43.7 µM)	0.5 (≈ 0.683 µM)	50	1 (≈ 1.37 µM)	Active	> 50	Dose-Dependent Effect	1 (≈ 1.37 µM)	inactive	25	100	4.75	10.7	Metabolite_Detected			Activity (Cryptococcus neoformans [7]): Active; Activity (Cryptococcus neoformans [15]): Active
CN(Cc1ccc(OCCCOc2ccc(CC(=O)NCCO[N+](=O)[O-])cc2)cc1)CC(O)(Cn1cncn1)c1ccc(F)cc1F (stereo unspecified)				> 64	0.125 (≈ 0.191 µM)		1 (≈ 1.53 µM)				1 (≈ 1.53 µM)							Stable	Stable	Activity (Cryptococcus neoformans [19]): Active; Activity (Cryptococcus neoformans [20]): Active; Activity (Cryptococcus neoformans [21]): Active; Activity (Cryptococcus neoformans [22]): inactive; Activity (Cryptococcus neoformans [24]): Active; Activity (Cryptococcus neoformans [26]): Active
CN(Cc1ccc(OCCCOc2ccc(CC(=O)OCCO[N+](=O)[O-])cc2)cc1)CC(O)(Cn1cncn1)c1ccc(F)cc1F (stereo unspecified)	100	44.5	26.5	> 64	0.125 (≈ 0.191 µM)	50	1 (≈ 1.53 µM)	Active	> 50	Dose-Dependent Effect	1 (≈ 1.53 µM)	inactive	25	100	5.31	23.7	Metabolite_Detected	Unstable	Unstable	Activity (Cryptococcus neoformans [27]): Active; Activity (Cryptococcus neoformans [28]): Active; Activity (Cryptococcus neoformans [29]): Active; Activity (Cryptococcus neoformans [30]): Active; Activity (Cryptococcus neoformans [31]): Active; Activity (Cryptococcus neoformans [32]): Active; Activity (Cryptococcus neoformans [33]): Active; Activity (Cryptococcus neoformans [34]): Dose-Dependent Effect; Activity (Cryptococcus neoformans [35]): Active; inhibition (Cryptococcus neoformans [36]): inactive; Activity (Cryptococcus neoformans [37]): Active
